In one assay the target is T1, ERRα (Homo sapiens, UniProt P11474).
T1 construct: expressed in transfected cells; host or cells: HEK293
T1 sequence (P11474 1-423): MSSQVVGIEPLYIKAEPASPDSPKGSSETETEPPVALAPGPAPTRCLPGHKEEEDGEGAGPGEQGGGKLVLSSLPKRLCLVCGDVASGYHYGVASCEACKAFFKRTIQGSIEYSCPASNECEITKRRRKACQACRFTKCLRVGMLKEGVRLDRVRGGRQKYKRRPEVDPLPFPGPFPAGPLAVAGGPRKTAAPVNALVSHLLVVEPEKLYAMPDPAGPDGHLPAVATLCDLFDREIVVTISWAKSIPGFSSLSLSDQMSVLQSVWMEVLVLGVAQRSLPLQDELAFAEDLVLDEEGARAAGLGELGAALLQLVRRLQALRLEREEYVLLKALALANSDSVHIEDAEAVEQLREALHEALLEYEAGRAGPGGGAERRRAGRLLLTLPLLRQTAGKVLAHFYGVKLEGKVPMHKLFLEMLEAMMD
As to the kind of experiment: ERRE luciferase reporter assay in HEK293 cells transfected with pcDNA3.1 ERRα. It counts as cell-based. Particulars: 24 hours treatment, luciferase activity. The arrangement: key to EC50 (ERRα): ***<1 μM; **1-5 μM; *>5 μM; i.a. (inactive). As to the method:
(§1) HEK293 cells were maintained in Dulbecco's modified Eagles medium (DMEM) supplemented with 10% fetal bovine serum at 37° C. under 5% CO2. […] Cells were transfected with ERRE reporter construct and pcDNA3.1 ERRα or ERRγ. Twenty-four-hours post-transfection, the cells were treated with vehicle or compound (various concentrations) for 24 hours (4 wells per dose). Luciferase activity was measured using the One-Glo Tox luciferase reporter assay system (Promega) and […] were calculated using GraphPad Prism software.
(A reporter such as luciferase makes a cellular process visible.)

Another assay deals with T2, ERRγ (Homo sapiens, UniProt P62508).
T2 construct: expressed in transfected cells; host or cells: HEK293
T2 sequence (P62508 1-458): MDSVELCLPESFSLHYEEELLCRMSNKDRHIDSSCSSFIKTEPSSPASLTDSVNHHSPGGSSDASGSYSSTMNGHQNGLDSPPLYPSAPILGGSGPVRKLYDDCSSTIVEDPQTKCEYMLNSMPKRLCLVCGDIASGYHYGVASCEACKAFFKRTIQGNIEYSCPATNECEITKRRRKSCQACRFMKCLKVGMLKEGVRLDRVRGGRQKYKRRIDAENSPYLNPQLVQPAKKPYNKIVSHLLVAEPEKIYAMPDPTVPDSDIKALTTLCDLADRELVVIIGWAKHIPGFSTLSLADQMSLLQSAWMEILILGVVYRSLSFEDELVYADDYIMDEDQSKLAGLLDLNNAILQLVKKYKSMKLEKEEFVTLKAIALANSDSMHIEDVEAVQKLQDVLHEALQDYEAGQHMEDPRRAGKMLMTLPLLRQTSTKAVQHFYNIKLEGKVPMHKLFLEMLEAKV
Briefly: ERRE luciferase reporter assay in HEK293 cells transfected with pcDNA3.1 ERRγ. Particulars: 24 hours treatment, luciferase activity. The arrangement: key to EC50 (ERRγ): ***<1 μM; **1-5 μM; *>5 μM; i.a. (inactive). The assay is classed as cell-based. As to the method:
as §1

The term EC50 denotes the midpoint of the concentration-response curve.

Consider `Fc1ccc(C2=NNC(c3ccc4ccccc4c3)C2)cc1` (stereo not drawn) [Entry 91, 3-(4-fluorophenyl)-5-(naphthalen-2-yl)-4,5-dihydro-1H-pyrazole], for which the “EC50 (ERRα)” value on ERRα is “i.a”. At ERRγ, the “EC50 (ERRγ)” value is “i.a”.

Turning to `Oc1cccc(C2=NNC(c3ccc(Br)cc3)C2)c1` (stereo not drawn) [Entry 108, 3-(5-(4-bromophenyl)-4,5-dihydro-1H-pyrazol-3-yl)phenol], the EC50 on ERRα and at ERRγ was 1 to 5 µM throughout.

As to `Oc1ccc(C2CC(c3cc(C(F)(F)F)cc(C(F)(F)F)c3)=NN2)cc1` (stereo not drawn) [Entry 9, 4-(3-(3,5-bis(trifluoromethyl)phenyl)-4,5-dihydro-1H-pyrazol-5-yl)phenol], the “EC50 (ERRα)” value on ERRα is listed as “i.a”. For the same compound, the “EC50 (ERRγ)” value on ERRγ is recorded as “i.a”.

Take `Oc1ccc(C2CC(c3cccc(Br)c3)=NN2)cc1` (stereo not drawn) [Entry 84, 4-(3-(3-bromophenyl)-4,5-dihydro-1H-pyrazol-5-yl)phenol]: the 50% effective concentration (EC50) at ERRα and on ERRγ was greater than 5 µM in each case.

On to `Oc1cccc(C2=NNC(c3cnc[nH]3)C2)c1` (stereo not drawn) [Entry 102, 3-(5-(1H-imidazol-5-yl)-4,5-dihydro-1H-pyrazol-3-yl)phenol], for which the concentration giving a half-maximal response (EC50) on ERRα and at ERRγ was greater than 5 µM throughout.

In the case of `Oc1cccc(C2CC(c3ccc(Br)cc3)=NN2)c1` (stereo not drawn) [Entry 79, 3-(3-(4-bromophenyl)-4,5-dihydro-1H-pyrazol-5-yl)phenol], the EC50 on ERRα and at ERRγ was 1 to 5 µM in each case.

In the case of `Oc1ccccc1C1=NNC(c2ccc(Br)cc2)C1` (stereo not drawn) [Entry 95, 2-(5-(4-bromophenyl)-4,5-dihydro-1H-pyrazol-3-yl)phenol], the results for the EC50 at ERRα and at ERRγ were less than 1 µM and 1 to 5 µM, respectively.

As for `COc1ccc(C2=NNC(c3cc(Br)cc(Br)c3O)C2)cc1` (stereo not drawn) [Entry 117, 2,4-dibromo-6-(3-(4-methoxyphenyl)-4,5-dihydro-1H-pyrazol-5-yl)phenol], at ERRα, the “EC50 (ERRα)” value was “i.a”. Besides, on ERRγ, the “EC50 (ERRγ)” value is “i.a”.

For `Oc1ccc(C2CC(c3ccccc3O)=NN2)cc1` (stereo not drawn) [Entry 67, 2-(5-(4-hydroxyphenyl)-4,5-dihydro-1H-pyrazol-3-yl)phenol], the “EC50 (ERRα)” value on ERRα is listed as “i.a”. The same compound had a concentration for a half-maximal effect (EC50) at ERRγ greater than 5 µM.

In the case of `COc1cccc(C2=NN(C(C)=O)C(c3ccccc3O)C2)c1` (stereo not drawn) [Entry 13, 1-(5-(2-Hydroxyphenyl)-3-(3-methoxyphenyl)-4,5-dihydro-1H-pyrazol-1-yl)ethan-1-one], the “EC50 (ERRα)” value at ERRα was “i.a”. In addition, on ERRγ, the “EC50 (ERRγ)” value is “i.a”.

Take `CC(C)(C)c1cc(C2CC(c3ccc(Br)cc3)=NN2)c(O)c(C(C)(C)C)c1` (stereo not drawn) [Entry 115, 2-(3-(4-bromophenyl)-4,5-dihydro-1H-pyrazol-5-yl)-4,6-di-tert-butylphenol]: the “EC50 (ERRα)” value on ERRα is given as “i.a”. In addition, the “EC50 (ERRγ)” value at ERRγ was “i.a”.

As to `Cc1ccc(O)c(C2CC(c3ccc(Cl)cc3Cl)=NN2)c1` (stereo not drawn) [Entry 49, 2-(3-(2,4-Dichlorophenyl)-4,5-dihydro-1H-pyrazol-5-yl)-4-methylphenol], at ERRα, the “EC50 (ERRα)” value was “i.a”. The “EC50 (ERRγ)” value on ERRγ was “i.a”.

In the case of `Oc1ccc2cc(C3CC(c4ccc(Cl)cc4)=NN3)ccc2c1` (stereo not drawn) [Entry 98, 6-(3-(4-chlorophenyl)-4,5-dihydro-1H-pyrazol-5-yl)naphthalen-2-ol], the “EC50 (ERRα)” value on ERRα was “i.a”. The “EC50 (ERRγ)” value at ERRγ is “i.a”.

As to `Oc1ccc2cc(C3CC(c4ccc(Br)cc4)=NN3)ccc2c1` (stereo not drawn) [Entry 93, 6-(3-(4-bromophenyl)-4,5-dihydro-1H-pyrazol-5-yl)naphthalen-2-ol], the “EC50 (ERRα)” value at ERRα is recorded as “i.a”. Also, the “EC50 (ERRγ)” value on ERRγ is given as “i.a”.

Take `Oc1cccc(C2CC(c3ccccc3F)=NN2)c1` (stereo not drawn) [Entry 90, 3-(3-(2-fluorophenyl)-4,5-dihydro-1H-pyrazol-5-yl)phenol]: the concentration for a half-maximal effect (EC50) at ERRα and at ERRγ was 1 to 5 µM in each case.

As to `Oc1ccccc1C1CC(c2cccc(Br)c2)=NN1` (stereo not drawn) [Entry 29, 2-(3-(3-Bromophenyl)-4,5-dihydro-1H-pyrazol-5-yl)phenol], the EC50 at ERRα and at ERRγ was greater than 5 µM each time.

As to `COc1ccc(C2=NNC(c3cccc(Cl)c3O)C2)cc1` (stereo not drawn) [Entry 58, 2-chloro-6-(3-(4-methoxyphenyl)-4,5-dihydro-1H-pyrazol-5-yl)phenol], the EC50 on ERRα and on ERRγ was 1 to 5 µM throughout.

On to `Oc1ccccc1C1CC(c2cccc(F)c2)=NN1` (stereo not drawn) [Entry 31, 2-(3-(3-Fluorophenyl)-4,5-dihydro-1H-pyrazol-5-yl)phenol], for which the values for the concentration for a half-maximal effect (EC50) on ERRα and on ERRγ were 1 to 5 µM and greater than 5 µM, respectively.

`Oc1ccccc1C1=NNC(c2ccccc2O)C1` (stereo not drawn) [Entry 30, 2,2′-(4,5-Dihydro-1H-pyrazole-3,5-diyl)diphenol]: the concentration for a half-maximal effect (EC50) at ERRα and at ERRγ was greater than 5 µM in each case.

On to `FC(F)(F)c1cccc(C2=NNC(c3ccc4ccccc4c3)C2)c1` (stereo not drawn) [Entry 83, 5-(naphthalen-2-yl)-3-(3-(trifluoromethyl)phenyl)-4,5-dihydro-1H-pyrazole], for which the “EC50 (ERRα)” value on ERRα is reported as “i.a”. Moreover, the “EC50 (ERRγ)” value at ERRγ is recorded as “i.a”.

For the compound `Cc1cc(C2CC(c3ccc(C(F)(F)F)cc3)=NN2)cc(C)c1O` (stereo not drawn) [Entry 70, 2,6-dimethyl-4-(3-(4-(trifluoromethyl)phenyl)-4,5-dihydro-1H-pyrazol-5-yl)phenol], on ERRα, the “EC50 (ERRα)” value is on record as “i.a”. For the same compound, the “EC50 (ERRγ)” value on ERRγ is reported as “i.a”.

With `CC(=O)N1N=C(c2ccccc2O)CC1c1ccccc1O` (stereo not drawn) [Entry 15, 1-(3,5-bis(2-hydroxyphenyl)-4,5-dihydro-1H-pyrazol-1-yl)ethan-1-one], at ERRα, the “EC50 (ERRα)” value is “i.a”. For the same compound, at ERRγ, the “EC50 (ERRγ)” value is on record as “i.a”.

Regarding `Cc1ccc(C2CC(c3ccc(Br)cc3)=NN2)c(O)c1` (stereo not drawn) [Entry 61, 2-(3-(4-bromophenyl)-4,5-dihydro-1H-pyrazol-5-yl)-5-methylphenol], the “EC50 (ERRα)” value on ERRα is on record as “i.a”. The EC50 at ERRγ was greater than 5 µM.

For `Oc1cccc(C2=NNC(c3ccccc3O)C2)c1` (stereo not drawn) [Entry 96, 2-(3-(3-hydroxyphenyl)-4,5-dihydro-1H-pyrazol-5-yl)phenol], the EC50 on ERRα was 1 to 5 µM; at ERRγ, greater than 5 µM.

For the compound `Cc1nc[nH]c1C1CC(c2ccc(Br)cc2)=NN1` (stereo not drawn) [Entry 105, 3-(4-bromophenyl)-5-(4-methyl-1H-imidazol-5-yl)-4,5-dihydro-1H-pyrazole], the EC50 at ERRα and on ERRγ was greater than 5 µM throughout.

As for `Brc1cccc(C2=NNC(c3ccc4ccccc4c3)C2)c1` (stereo not drawn) [Entry 86, 3-(3-bromophenyl)-5-(naphthalen-2-yl)-4,5-dihydro-1H-pyrazole], the EC50 on ERRα and at ERRγ was greater than 5 µM throughout.

Consider `Oc1ccc(C2CC(c3cccc(F)c3)=NN2)cc1` (stereo not drawn) [Entry 77, 4-(3-(3-fluorophenyl)-4,5-dihydro-1H-pyrazol-5-yl)phenol], for which the EC50 on ERRα and at ERRγ was greater than 5 µM in each case.

As to `Oc1cccc(C2CC(c3ccc(F)cc3)=NN2)c1` (stereo not drawn) [Entry 87, 3-(3-(4-fluorophenyl)-4,5-dihydro-1H-pyrazol-5-yl)phenol], the EC50 on ERRα is 1 to 5 µM; on ERRγ, greater than 5 µM.

For the compound `Oc1ccccc1C1CC(c2ccccn2)=NN1` (stereo not drawn) [Entry 25, 2-(3-(Pyridin-2-yl)-4,5-dihydro-1H-pyrazol-5-yl)phenol], the half-maximal effective concentration (EC50) at ERRα and at ERRγ was greater than 5 µM each time.

`Oc1ccc2cc(C3CC(c4ccccc4F)=NN3)ccc2c1` (stereo not drawn) [Entry 107, 6-(3-(2-fluorophenyl)-4,5-dihydro-1H-pyrazol-5-yl)naphthalen-2-ol]: the concentration for a half-maximal effect (EC50) at ERRα and at ERRγ was 1 to 5 µM each time.

The values above are taken from US20260257998A1, “ERR MODULATORS” (University of Health Sciences and Pharmacy in St. Louis, priority 2023, published 2026).
